Assay results: PMC9854712 (Antioxidants, 2023)
Read-outs that look alike come from different tables or passages of the source.

Columns and labels:
MDA-MB-231 cells = assay: MTT cell viability assay, MDA-MB-231; assay type: cell-based; conditions: Homo sapiens, MDA-MB-231, 48 h, read-out: Cell growth % at 10 µM, MDA-MB-231
Procedure: (§1) The cell lines were obtained from the American Type Culture Collection (ATCC). Five tumor cell lines (MDA-MB-231, MCF-7, HCT116, HTB-54, and DU-145) and two non-tumorigenic cells (184B5 and BEAS-2B) were grown in RPMI 1640 medium (Gibco), and the HT-29 tumor cell line was grown in McCoy’s medium. Both mediums were supplemented with 10% fetal bovine serum (FBS; Gibco) and 1% antibiotics (10.00 units/mL penicillin and 10.00 μg/mL streptomycin; Gibco). Cells were preserved in tissue culture flasks at 37 °C and 5% CO2. The culture medium was replaced every three days.
(§2) The effect of each compound on cell viability was tested using the MTT assay. […] Selected compounds were then tested at seven different concentrations (0.5–100 μM) in MCF-7, HCT116, HT-29, HTB-54, 184B5 and BEAS-2B cells. Cells were seeded at 10^4 per well onto flat-bottomed 96-well culture plates. They were treated with either DMSO or increasing concentration of the corresponding compound for 48 h. Then, they were incubated with 20 μL of 3-(4,5-dimethylthiazol-2-yl)-2,5-diphenyltetrazolium bromide (MTT) (2 mg /mL stock; Aldrich) for 2,5 h and analyzed for their ability to generate a purple formazan dye. These formazan crystals were dissolved in 50 μL of DMSO. The absorbance was measured at a wavelength of 550 nm and the ratio of viable cells was calculated.
(§3) Results are expressed as cell viability % at 10 μM. Selectivity index were calculated as the ratio of the IC50 values determined for the non-malignant and the tumor cells in breast (IC50 (184B5)/IC50 (MCF-7)) and lung (IC50 (BEAS-2B)/IC50 (HTB-54)) cell lines. Data were obtained from at least three independent experiments performed in triplicates.

DU-145 cells = assay: MTT cell viability assay, DU-145; assay type: cell-based; conditions: Homo sapiens, DU-145, 48 h, read-out: Cell growth % at 10 µM, DU-145
Procedure: as §1, §2, §3

HTB-54 cells [1] = assay: MTT cell viability assay, HTB-54; assay type: cell-based; conditions: for viability at 10 µM: read-out: Cell growth % at 10 µM, HTB-54
Procedure: as §1, §2, §3

in vitro = conditions: for Papp at 20 h, 500 µg/mL: PAMPA; for Pe ± SD: porcine brain lipid, 20 h, 25 °C; for BBB Permeation (Experimental): class from PAMPA-BBB Pe
Procedure: Franz diffusion cells (Microette 8910130, Hanson Research) were employed to perform this assay. The compounds were dissolved in DMSO at 5 mg/mL and diluted to 500 µg/mL with phosphate-buffered saline (PBS)/EtOH (7:3) to make a stock solution. A total of 10 µL of porcine brain lipid (PBL) diluted in dodecane solution (20 mg/mL) was spread onto a PVDF membrane that was placed between the donor and acceptor compartments, forming a sandwich structure. Then, 4.5 mL of PBS/EtOH (7:3) was added to the acceptor compartment and 700 µL of the stock solution was added to the donor cell. […] The concentration of the compound was calculated from the standard curve and expressed as permeability (Pe) by the following formula [84]:Permeability (cm/s): Pe = {−ln [1 − CA(t)/Ceq]}/[A ∗ (1/VD + 1/VA) ∗ t]
A = filter area ([…]), VD = donor cell volume (0.7 mL), VA = acceptor cell volume (4.5 mL), t = incubation time, CA (t) = compound concentration in acceptor cell at time t, CD (t) = compound concentration in donor cell at time t, and Ceq = [CD(t) ∗ VD + […] ∗ VA]/(VD + VA).
Every sample was analyzed at least in duplicate and the data were reported as mean ± SD.

AChE = target: T1, AChE (Rattus norvegicus, UniProt P37136); assay: AChE inhibition by Ellman's method (rat frontal cortex homogenate); assay type: biochemical
T1 construct: from tissue; host or cells: frontal cortex of male Wistar rats (crude homogenate)
T1 sequence (P37136 32-614): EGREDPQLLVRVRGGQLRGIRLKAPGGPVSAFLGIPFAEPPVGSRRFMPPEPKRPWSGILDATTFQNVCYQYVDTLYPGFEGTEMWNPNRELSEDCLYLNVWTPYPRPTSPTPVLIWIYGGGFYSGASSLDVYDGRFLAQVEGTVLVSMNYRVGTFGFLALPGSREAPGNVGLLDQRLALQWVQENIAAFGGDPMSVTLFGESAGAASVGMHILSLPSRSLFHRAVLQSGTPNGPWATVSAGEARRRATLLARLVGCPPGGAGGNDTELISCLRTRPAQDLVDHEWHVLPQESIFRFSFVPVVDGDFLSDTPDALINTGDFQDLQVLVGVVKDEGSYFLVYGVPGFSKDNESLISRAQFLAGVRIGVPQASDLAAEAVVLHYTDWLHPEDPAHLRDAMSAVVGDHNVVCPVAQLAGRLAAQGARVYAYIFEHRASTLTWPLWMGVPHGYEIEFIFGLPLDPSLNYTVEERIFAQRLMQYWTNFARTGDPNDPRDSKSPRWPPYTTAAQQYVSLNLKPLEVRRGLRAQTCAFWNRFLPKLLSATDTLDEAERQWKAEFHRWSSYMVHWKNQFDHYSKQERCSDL
Procedure: Frontal cortex tissue obtained from male Wistar rats was homogenized in 39 volumes of 75 mM sodium phosphate buffer (pH 7.4). A mixture of 260 μL containing the compounds assessed, acetylthiocholine iodide and 5 μL tissue homogenate was incubated for 8 min. The reaction was then terminated by adding 50 μL 3% (w/v) sodium dodecyl sulphate followed by 50 μL 0.2% (w/v) 5,5′-dithio-bis(2-nitrobenzoic) acid to produce the yellow anion of 5-thio-2-nitro-benzoic-acid. The extent of the color production was measured spectrophotometrically at 405 nm using Multiskan Ex (Thermo Electron Corporation). […] Results are expressed as the mean ± SD and each experiment was repeated three times.

HT-29 cells [2] = assay: MTT cell viability assay, HT-29; assay type: cell-based; conditions: Homo sapiens; for viability at 10 µM: HT-29, 10 µM, 48 h, read-out: Cell growth % at 10 µM, HT-29
Procedure: as §1, §2, §3

HT-29 cells [3] = conditions: cited from earlier work
[4] = test system: panel of 60 human tumor cell lines; parameters: method as in PMID 19549304; conditions: same cell line panel; cited from earlier work
MCF-7 cells [5] = assay: MTT cell viability assay, MCF-7; assay type: cell-based
Procedure: as §1, §2, §3

HCT116 cells = assay: MTT cell viability assay, HCT116; assay type: cell-based; conditions: Homo sapiens, HCT-116, 48 h
Procedure: as §1, §2, §3

184B5 cells = assay: MTT cell viability assay, 184B5 (non-tumorigenic); assay type: cell-based; conditions: Homo sapiens, 48 h, nonmalignant mammary gland
Procedure: as §1, §2, §3

[6] = test system: HTB-54, DU-145, HT-29 and MDA-MB-231 cancer cell lines; assay: cells; assay type: cell-based; conditions: against the panel of the four cancer cell lines
Procedure: as §1, §2
As a first approach, all the compounds were tested in vitro against lung (HTB-54), prostatic (DU-145), colon (HT-29), and triple-negative breast (MDA-MB-231) cancer cell lines at two concentrations (50 and 10 µM) for 48 h. Then, the MTT colorimetric assay was used to evaluate cell proliferation after the treatment. The data are expressed as the percentage of cell growth ± SD in at least three independent experiments performed in quadruplicates (Table S1).

BEAS-2B cells = assay: MTT cell viability assay, BEAS-2B (non-tumorigenic); assay type: cell-based; conditions: Homo sapiens, 48 h, nonmalignant bronchial epithelium
Procedure: as §1, §2, §3

HTB-54 cells [7] = test system: HTB-54 cells; parameters: method as in PMID 36257283; conditions: parent NSAIDs; cited from earlier work
MCF-7 cells [8] = test system: MCF-7 cells; parameters: method as in PMID 36257283; conditions: parent NSAIDs; cited from earlier work

C=CC[Se]C(=O)c1sccc1Cl [Compound 10a, Se-allyl 3-chlorothiophene-2-carboselenoate]
viability at 10 µM (MDA-MB-231 cells): 41.3 ± 3.5% | viability at 10 µM (DU-145 cells): 33.4 ± 6.4% | viability at 10 µM (HTB-54 cells [1]; HTB-54, 48 h, MTT): 27.1 ± 11.2% | Papp at 20 h, 500 µg/mL (in vitro): 38.6 ± 1.3 ×10⁻⁶ cm/s | fold higher Pe compared to galantamine (in vitro; PAMPA-BBB): 3 fold | Pe ± SD (in vitro; PAMPA-BBB): 38.63 ×10⁻⁶ cm/s | BBB Permeation (Experimental) (in vitro): High (High BBB permeation predicted; Pe (10^−6 cm s^−1) > 4.0) | IC50 (AChE): 2.4 ± 1.2 µM | % AChE Inhibition (AChE; at 10^−6 M, Ellman's method): 42.5 ± 6.4% | inhibition at 1 µM (AChE; at 10^−6 M, Ellman's method): 42.5% | viability at 10 µM (HT-29 cells [2]): 61.5 ± 17.6%

CC(C)Cc1ccc(C(C)C(=O)O)cc1 (centres unmarked) [Ibuprofen, 2-(4-isobutylphenyl) propanoic acid]
IC50 (HT-29 cells [3]; parent NSAID): > 50 µM

COc1cc2ncnc(Nc3ccc(F)c(Cl)c3)c2cc1OCCCN1CCOCC1 [gefitinib]
GI50 [4]: 3.24 µM

C=CC[Se]C(=O)C(C)c1ccc2cc(OC)ccc2c1 [Compound 16a, Se-allyl (S)-2-(6-methoxynaphtalen-2-yl)propaneselenoate]
viability at 10 µM (MDA-MB-231 cells): 33.8 ± 5.6% | viability at 10 µM (DU-145 cells): 18.8 ± 6.3% | viability at 10 µM (HTB-54 cells [1]; HTB-54, 48 h, MTT): 30.9 ± 6.7% | IC50 (HTB-54 cells [1]; HTB-54, MTT, 48 h): 9.9 ± 0.3 µM | SI (lung) (HTB-54 cells [1]; IC50 (BEAS-2B)/IC50 (HTB-54)): 1.5 | IC50 (MCF-7 cells [5]; Homo sapiens, MCF7, MTT, 48 h): 10.9 ± 1.3 µM | SI (breast) (MCF-7 cells [5]; IC50 (184B5)/IC50 (MCF-7)): 1.0 | inhibition at 1 µM (AChE; at 10^−6 M, Ellman's method): 20.3 ± 4.2% | viability at 10 µM (HT-29 cells [2]): 49.9 ± 5.6% | IC50 (HT-29 cells [2]; HT-29, 48 h): 9.4 ± 0.6 µM | IC50 (HCT116 cells): 27.1 ± 2.7 µM | IC50 (184B5 cells): 11.1 ± 1.1 µM | viability at 10 µM [6]: < 55% | IC50 (BEAS-2B cells): 14.7 ± 8.7 µM

CC(=O)Oc1ccccc1C(=O)O [ASA]
IC50 (HTB-54 cells [7]): > 100 µM | IC50 (MCF-7 cells [8]): > 100 µM | IC50 (HT-29 cells [3]; parent NSAIDs): > 100 µM

COc1ccc2c3c1O[C@H]1C[C@@H](O)C=C[C@@]31CCN(C)C2 [Galantamine, galantamine, reference compound]
Papp at 20 h, 500 µg/mL (in vitro): 12.3 ± 3.1 ×10⁻⁶ cm/s | Pe ± SD (in vitro; PAMPA-BBB): 12.27 ×10⁻⁶ cm/s | BBB Permeation (Experimental) (in vitro): High (High BBB permeation predicted; Pe (10^−6 cm s^−1) > 4.0)

C=CC[Se]C(=O)c1ccccc1O [Compound 13a, Se-allyl 2-hydroxybenzoselenoate]
viability at 10 µM (MDA-MB-231 cells): 77.1 ± 12.6% | viability at 10 µM (DU-145 cells): 29.5 ± 4.3% | viability at 10 µM (HTB-54 cells [1]; HTB-54, 48 h, MTT): 40.9 ± 4.9% | stability during the PAMPA-BBB experiment (in vitro; observation in words): signs of degradation | IC50 (AChE): 5.2 ± 2.3 µM | inhibition at 1 µM (AChE; at 10^−6 M, Ellman's method): 51.8 ± 4% | viability at 10 µM (HT-29 cells [2]): 88.8 ± 8.6%

O=C1[O][Pt]2([NH][C@@H]3CCCC[C@H]3[NH]2)[O]C1=O [oxaliplatin]
GI50 [4]: 2.89 µM
